Source: ChEMBL document CHEMBL1201862, “PubChem BioAssay data set” (2004)
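Each compound was tested at five concentrations against cells in 96-well plates for 48 hours. GI50: concentration for 50% inhibition of growth.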 The source made the active and inactive calls. No stated cut-off is given here; in the data, active = GI50 up to about 1.1 µM and inactive = higher.

Tests used:
Assay in all cases: DTP human tumour cell line panel, 48 h
CCRF-CEM = test system: CCRF-CEM
HOP-62 = test system: HOP-62
IGROV-1 = test system: IGROV-1
KM12 = test system: KM12
MOLT-4 = test system: MOLT-4
NCI-H226 = test system: NCI-H226
NCI-H23 = test system: NCI-H23
PC-3 = test system: PC-3
RXF 393 = test system: RXF 393
SF-268 = test system: SF-268
SF-295 = test system: SF-295
SK-MEL-2 = test system: SK-MEL-2
SK-MEL-5 = test system: SK-MEL-5
SR = test system: SR
T47D = test system: T47D
TK-10 = test system: TK-10
UO-31 = test system: UO-31
HOP-92 = test system: HOP-92
OVCAR-4 = test system: OVCAR-4
RPMI-8226 = test system: RPMI-8226

Row | Compound | GI50 (CCRF-CEM) | GI50 (HOP-62) | GI50 (IGROV-1) | GI50 (KM12) | GI50 (MOLT-4) | GI50 (NCI-H226) | GI50 (NCI-H23) | GI50 (PC-3) | GI50 (RXF 393) | GI50 (SF-268) | GI50 (SF-295) | GI50 (SK-MEL-2) | GI50 (SK-MEL-5) | GI50 (SR) | GI50 (T47D) | GI50 (TK-10) | GI50 (UO-31) | GI50 (HOP-92) | GI50 (OVCAR-4) | GI50 (RPMI-8226)
1 | CC(=O)Nc1ccc2c(C)c3c4ccccc4n(C)c3nc2n1 | 18.7 µM (inactive) | 14.3 µM (inactive) | 28.1 µM (inactive) | 11.9 µM (inactive) | 5.83 µM (inactive) | 29.6 µM (inactive) | 19.3 µM (inactive) | 18.9 µM (inactive) | 16.1 µM (inactive) | 17.8 µM (inactive) | 19.9 µM (inactive) | 20.6 µM (inactive) | 9.29 µM (inactive) | 10.6 µM (inactive) | 18.4 µM (inactive) | 32.9 µM (inactive) | 11.4 µM (inactive) |  |  | 
2 | COc1ncc(C#CC(=O)c2ccccc2)c(OC)n1 | 0.183 µM (active) | 19.3 µM (inactive) | 2.1 µM (inactive) | 6.85 µM (inactive) | 0.679 µM (active) | 2.07 µM (inactive) | 4.33 µM (inactive) | 1.89 µM (inactive) | 1.85 µM (inactive) | 10.4 µM (inactive) | 16.6 µM (inactive) | 5.07 µM (inactive) | 2.09 µM (inactive) |  | 5.83 µM (inactive) | 1.67 µM (inactive) | 2.03 µM (inactive) | 2.15 µM (inactive) | 4.7 µM (inactive) | 2.33 µM (inactive)
3 | O=C(O)/C=c1/c2ccccc2n2nc3ccccc3c12 | 33.2 µM (inactive) | 31.6 µM (inactive) | 31.4 µM (inactive) | 20.4 µM (inactive) | 23 µM (inactive) |  | 27.7 µM (inactive) | > 100 µM (inactive) | 49.1 µM (inactive) | 38.4 µM (inactive) | 30.8 µM (inactive) | 39.7 µM (inactive) | 14.2 µM (inactive) | 16.6 µM (inactive) | 55.5 µM (inactive) | 30.3 µM (inactive) | 37.6 µM (inactive) |  | 22.8 µM (inactive) | 25.8 µM (inactive)
4 | O=C1NC(=O)C(C(c2ccc(Cl)cc2)C2C(=O)NC(=O)NC2=O)C(=O)N1.c1ccncc1 | > 100 µM (inactive) | > 100 µM (inactive) | > 100 µM (inactive) | > 100 µM (inactive) | > 100 µM (inactive) | > 100 µM (inactive) | > 100 µM (inactive) | > 100 µM (inactive) | 58.9 µM (inactive) |  | > 100 µM (inactive) | > 100 µM (inactive) | > 100 µM (inactive) |  | > 100 µM (inactive) | > 100 µM (inactive) | > 100 µM (inactive) | > 100 µM (inactive) | > 100 µM (inactive) | > 100 µM (inactive)
5 | Cc1ccccc1NC(=O)/C(C#N)=N\Nc1[nH]cnc1C(N)=O | 2.96 µM (inactive) | 6.12 µM (inactive) | 4.88 µM (inactive) | 28.6 µM (inactive) | 2.88 µM (inactive) | 41.4 µM (inactive) | 32.6 µM (inactive) | 4.44 µM (inactive) | 15.3 µM (inactive) | 4.11 µM (inactive) | 9.82 µM (inactive) | 1.18 µM (inactive) | 35.3 µM (inactive) |  | 25.9 µM (inactive) | 3.08 µM (inactive) | 1.62 µM (inactive) |  | 34.1 µM (inactive) | 1.83 µM (inactive)
6 | O=C1CC(c2ccco2)C2(C(=O)NC(=O)NC2=O)C(c2ccco2)C1 (configuration not stated) | > 75 µM (inactive) | > 75 µM (inactive) | > 75 µM (inactive) | > 75 µM (inactive) | > 75 µM (inactive) |  | > 75 µM (inactive) | > 75 µM (inactive) | > 75 µM (inactive) | > 75 µM (inactive) | > 75 µM (inactive) | > 75 µM (inactive) | > 75 µM (inactive) | > 75 µM (inactive) | > 75 µM (inactive) | > 75 µM (inactive) | > 75 µM (inactive) |  | > 75 µM (inactive) | > 75 µM (inactive)
7 | CCCCc1c(C(=O)OC(C)(C)C)cc(C#Cc2cc(C(=O)OC(C)(C)C)c(CCCC)c(C(=O)OC(C)(C)C)c2)cc1C(=O)OC(C)(C)C |  | > 100 µM (inactive) | > 100 µM (inactive) | > 100 µM (inactive) |  | > 100 µM (inactive) | > 100 µM (inactive) | > 100 µM (inactive) |  | > 100 µM (inactive) | > 100 µM (inactive) | > 100 µM (inactive) | > 100 µM (inactive) |  | > 100 µM (inactive) | > 100 µM (inactive) | > 100 µM (inactive) | > 100 µM (inactive) | > 100 µM (inactive) | > 100 µM (inactive)
8 | CNCCCNc1c2ccccc2nc2cccc([N+](=O)[O-])c12 | 0.00986 µM (active) | 0.00373 µM (active) | 0.00726 µM (active) | 0.0064 µM (active) | 0.00243 µM (active) | 0.018 µM (active) | 0.00193 µM (active) | 0.00182 µM (active) | 0.000346 µM (active) | 0.00225 µM (active) | 0.0034 µM (active) | 0.00332 µM (active) | 0.00507 µM (active) |  | 0.00229 µM (active) | 0.00675 µM (active) | 0.00845 µM (active) | 0.00183 µM (active) | 0.00174 µM (active) | 0.00348 µM (active)
9 | CCOC(=O)C(O)(NC(=O)Nc1ccc(F)cc1)C(F)(F)F (configuration not stated) | > 100 µM (inactive) |  | > 100 µM (inactive) |  | > 100 µM (inactive) |  | > 100 µM (inactive) | > 100 µM (inactive) | > 100 µM (inactive) | > 100 µM (inactive) |  | > 100 µM (inactive) | > 100 µM (inactive) | > 100 µM (inactive) | > 100 µM (inactive) | > 100 µM (inactive) | > 100 µM (inactive) |  |  | > 100 µM (inactive)
10 | O=C1CCC(=O)N1CNc1ccc2c(c1)Sc1ccccc1O2 | 29 µM (inactive) | 43.7 µM (inactive) | 38.9 µM (inactive) | 36.7 µM (inactive) | 61.7 µM (inactive) | 20.4 µM (inactive) | 38.5 µM (inactive) | 32 µM (inactive) | 22.5 µM (inactive) | 44.8 µM (inactive) | 29.4 µM (inactive) | 18.1 µM (inactive) | 26.4 µM (inactive) |  | 25.2 µM (inactive) | 38 µM (inactive) | 23.2 µM (inactive) | 21.5 µM (inactive) | 33.7 µM (inactive) | 33.9 µM (inactive)
11 | O=C(c1ccccc1)N1N=C(C(F)(F)F)CC1(O)C(F)(F)F (configuration not stated) | > 100 µM (inactive) | > 100 µM (inactive) |  | > 100 µM (inactive) | > 100 µM (inactive) | > 100 µM (inactive) | > 100 µM (inactive) | > 100 µM (inactive) |  | > 100 µM (inactive) | > 100 µM (inactive) | > 100 µM (inactive) |  | > 100 µM (inactive) | > 100 µM (inactive) | > 100 µM (inactive) | > 100 µM (inactive) |  | > 100 µM (inactive) | > 100 µM (inactive)
